The test system of the test is normal oral keratinocytes (NOK). The test can be described thus: Cytotoxicity assay in normal oral keratinocytes. Format: cell-based, human. To be noted: 48 h. An excerpt: Normal oral keratinocytes (NOK) (kindly gifted by Dr. Karl Mugner, Tuffs University, Boston, MA, USA) were maintained in Keratinocyte SFM medium supplemented with EGF and bovine pituitary extract (GIBCO, Life Technologies, Berkeley, MO, USA) and 1% penicillin/ streptomycin. HNC cell line Ca127 was purchased from the ATCC. JHU029 (JHU-29) and JHU022 (JHU-22) cell lines were procured from the Johns Hopkins University (Baltimore, MD, USA). The Ca127 and JHU022 cells were maintained in Dulbecco's Modified Eagle Medium (DMEM), and JHU029 cells were in RPMI1640 (Sigma, St. Louis, Mo., USA) media supplemented with 10% FBS and 1% penicillin/ streptomycin (Sigma-Aldrich, St. Louis, Mo., USA) in a humidified CO2 incubator. The cell lines are routinely tested in the Inventors' laboratory to rule out mycoplasma contamination using a commercial Mycoplasma Detection kit (MycoAlert™, Lonza, Morrisville, N.C., USA). Ca127 cells are tongue origin and JHU022 and JHU029 cells are from larynx origin.
Ca127, JHU029, JHU022 and NOK were seeded in 96 well-plate (5000 cells/well) and cells were treated with different concentration of M-I for 48 h. There were untreated control and DMSO treated vehicle control group for comparison. Cytotoxicity assay was performed using Cell Counting Kit-8 (Dojindo Molecular Technology, Rockville, Md., USA) according to manufacturer instruction.

Data on one compound can be found in patent US20230226079A1, “METHODS AND COMPOSITIONS FOR TREATMENT OF SOLID TUMORS” (Saint Louis University, priority 2022, published 2023).

As for `CC(C)=CC(O)CC(C)[C@H]1CC[C@@]2(C)[C@@H]3[C@@H](O)C=C4[C@@H](CC[C@H](O)C4(C)C)[C@]3(C=O)CC[C@]12C` (stereo partly drawn) [M-I, (3S, 7S, 8S, 9R, 10R, 13R, 14S, 17R) 3,7-dihydroxy-17-(4-hydroxy-6-methylhept-5-en-2-yl)-4,4,13,14-tetramethyl-2,3,7,8,10,11, 12,15, 16,17-decahydro-1H-cyclopenta[a]phenanthrene-9-carbaldehyde], the “effect on human normal oral keratinocytes (NOK)” value is listed as “minimum effect”.
